Measurements: US11655235B2, “Pyrrolidine and piperidine compounds” (YUHAN CORPORATION, priority 2019, dated 2023)

How the values were obtained:
[1] = target: T1, Recombinant human FAP (Homo sapiens, UniProt Q12884); experiment: FAP inhibition, fluorogenic substrate Z-Gly-Pro-AMC; assay type: biochemical; details: for IC50: 25° C., Z-Gly-Pro-AMC substrate; for inhibition at 1 µM: read-out: hFAP inhibition % at 1 μM
T1 construct: purchased R&D systems
T1 sequence (Q12884 1-760): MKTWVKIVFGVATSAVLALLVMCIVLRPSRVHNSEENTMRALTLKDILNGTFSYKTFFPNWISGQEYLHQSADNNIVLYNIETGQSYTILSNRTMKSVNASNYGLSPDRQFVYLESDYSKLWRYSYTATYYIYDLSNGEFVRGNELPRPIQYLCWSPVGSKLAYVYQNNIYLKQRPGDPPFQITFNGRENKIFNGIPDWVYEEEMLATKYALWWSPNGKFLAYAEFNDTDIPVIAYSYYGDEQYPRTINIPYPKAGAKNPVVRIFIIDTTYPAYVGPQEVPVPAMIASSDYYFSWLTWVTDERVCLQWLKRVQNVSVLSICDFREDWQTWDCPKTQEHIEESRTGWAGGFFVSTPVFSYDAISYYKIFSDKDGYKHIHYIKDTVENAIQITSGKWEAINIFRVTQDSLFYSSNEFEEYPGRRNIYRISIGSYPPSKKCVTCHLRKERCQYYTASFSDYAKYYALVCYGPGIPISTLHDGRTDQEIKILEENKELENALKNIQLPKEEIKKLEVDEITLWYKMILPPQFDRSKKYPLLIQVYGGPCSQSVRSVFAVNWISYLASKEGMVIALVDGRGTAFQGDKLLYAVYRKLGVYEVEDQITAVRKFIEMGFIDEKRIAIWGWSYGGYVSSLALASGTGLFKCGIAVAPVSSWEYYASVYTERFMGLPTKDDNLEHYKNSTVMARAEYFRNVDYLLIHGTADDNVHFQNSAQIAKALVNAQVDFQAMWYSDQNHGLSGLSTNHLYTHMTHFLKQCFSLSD
Experimental: The compounds according to the present technology were evaluated in terms of the inhibitory effect on the activity of dipeptidyl peptidases including FAP by using a substrate producing fluorescent substances upon enzymatic decomposition. The test was conducted at 25° C. to get a final reaction volume of 100 μL in a 96 black well plate. […] Briefly, the test compounds were dissolved in dimethyl sulfoxide (DMSO) at a concentration of 20 mM and then subjected to serial dilution, thereby creating an 8 point curve. As for the control group, a 6 point curve created by serial dilution of Talabostat in the same buffer solution was used. Fluorescence intensity was measured using a microplate reader (Flexstation3, Molecular Devices) under the wavelength condition exciting at 380 nm and reading the emission at 460 nm. The inhibitory effect of the test compounds was measured as a decrease (%) in the signal rate as compared to the control group without any inhibitor. Data was fixed to a logistic model with four variables and IC50 value was calculated using GraphPad Prism program. Recombinant human FAP (R&D systems) was diluted with 50 mM tris (pH 7.5) buffer comprising 1 M of sodium chloride and 1 mg/ml of bovine serum albumin (BSA) to be 10 ng per final reaction. The test compounds were subjected to serial dilution in a buffer under the condition containing up to 0.1% of DMSO. Z-Gly-Pro-AMC (Bachem) was used as a substrate. By dissolving in DMSO and then diluting in the same buffer, the substrate was added to be […] per final reaction.

[2] = target: DPP4 (Homo sapiens, UniProt P27487); experiment: DPP4 inhibition, fluorogenic substrate H-Gly-Pro-AMC; assay type: biochemical; set-up: purchased R&D Systems; details: for inhibition at 1 µM: read-out: hDPP4 inhibition % at 1 μM
Experimental: The compounds according to the present technology were evaluated in terms of the inhibitory effect on the activity of dipeptidyl peptidases including FAP by using a substrate producing fluorescent substances upon enzymatic decomposition. The test was conducted at 25° C. to get a final reaction volume of 100 μL in a 96 black well plate. […] Briefly, the test compounds were dissolved in dimethyl sulfoxide (DMSO) at a concentration of 20 mM and then subjected to serial dilution, thereby creating an 8 point curve. As for the control group, a 6 point curve created by serial dilution of Talabostat in the same buffer solution was used. Fluorescence intensity was measured using a microplate reader (Flexstation3, Molecular Devices) under the wavelength condition exciting at 380 nm and reading the emission at 460 nm. The inhibitory effect of the test compounds was measured as a decrease (%) in the signal rate as compared to the control group without any inhibitor. Data was fixed to a logistic model with four variables and IC50 value was calculated using GraphPad Prism program. As for recombinant human DPP4 (R&D Systems), 25 mM tris (pH 8.0) buffer as a buffer solution and H-Gly-Pro-AMC (Bachem) as a substrate were used. As for recombinant human DPP7 (R&D Systems), 25 mM MES (pH 6.0) buffer as a buffer solution and Lys-Pro-AMC (Bachem) as a substrate were used. As for recombinant human DPP8 (PBS Bioscience), as a buffer solution, a 10 mM tris (pH 7.4) buffer comprising 10 mM of magnesium chloride and 0.05% of Tween 20, and Z-Ala-Pro-AMC (BPS Bioscience) as a substrate were used. As for recombinant human DPP9 (R&D Systems), a 25 mM tris (pH 8.0) buffer as a buffer solution and H-Gly-Pro-AMC (Bachem) as a substrate were used. As for recombinant human PREP (R&D System), as a buffer solution, a 25 mM tris (pH 7.5) buffer comprising 250 mM sodium chloride and 2.5 mM DTT (Dithiolthreitol), and Z-Gly-Pro-AMC (Bachem) as a substrate were used. The evaluation was made by using 10 ng of DPP4, PDD7, and PREP, 20 ng of DPP8, and 50 ng of DPP9 based on the final reaction. In the evaluation of DPP4, the test compounds were subjected to serial dilution in a buffer under the condition containing up to 0.1% of DMSO. In the evaluation of DPP7, DPP8, DPP9, and PREP, the test compounds were subjected to serial dilution in each buffer under the condition containing up to 0.5% of DMSO.

Chain of DPP4 (P27487 whole entry): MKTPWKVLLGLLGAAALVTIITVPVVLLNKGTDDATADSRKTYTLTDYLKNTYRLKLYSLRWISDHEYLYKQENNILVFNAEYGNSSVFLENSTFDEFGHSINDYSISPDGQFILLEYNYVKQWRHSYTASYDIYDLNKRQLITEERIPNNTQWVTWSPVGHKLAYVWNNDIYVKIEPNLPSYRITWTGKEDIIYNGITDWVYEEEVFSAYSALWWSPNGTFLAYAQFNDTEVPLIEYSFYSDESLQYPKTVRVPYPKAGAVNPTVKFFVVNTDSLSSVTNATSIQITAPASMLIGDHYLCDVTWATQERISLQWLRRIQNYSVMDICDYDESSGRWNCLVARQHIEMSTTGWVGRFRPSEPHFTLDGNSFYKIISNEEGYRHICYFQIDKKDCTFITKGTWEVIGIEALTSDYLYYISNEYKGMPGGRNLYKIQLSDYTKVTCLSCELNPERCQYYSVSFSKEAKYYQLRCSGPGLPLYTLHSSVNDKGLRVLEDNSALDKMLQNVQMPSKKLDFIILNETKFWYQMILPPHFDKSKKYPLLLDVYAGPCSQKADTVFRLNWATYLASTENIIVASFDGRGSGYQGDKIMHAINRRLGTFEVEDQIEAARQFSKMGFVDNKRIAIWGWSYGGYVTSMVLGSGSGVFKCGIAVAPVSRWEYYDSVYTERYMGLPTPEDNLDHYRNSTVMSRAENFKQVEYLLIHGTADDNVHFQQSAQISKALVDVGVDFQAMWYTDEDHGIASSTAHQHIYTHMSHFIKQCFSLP

Row | Structure (SMILES) | IC50 [1] [nM] | inhibition at 1 µM [2] [%] | hDPP4 inhibition % at 1 μM [2] | inhibition at 1 µM [1] [%]
1 | N#C[C@@H]1CCCN1C(=O)CN1CC[C@H](Oc2nccc3scc(Br)c23)C1 [Example 70, (S)-1-(2-((S)-3-((3-bromothieno[3,2-c]pyridin-4-yl)oxy)pyrrolidin-1-yl)acetyl)pyrrolidine-2-carbonitrile] | 31.9 | 22.6 |  | 
2 | N#C[C@@H]1CCCN1C(=O)CN1CC[C@H](Oc2ccc(Cl)c3ccccc23)C1 [Example 71, (S)-1-(2-((S)-3-((4-chloronaphthalen-1-yl)oxy)pyrrolidin-1-yl)acetyl)pyrrolidine-2-carbonitrile] | 42.6 |  | No inhibition** | 
3 | N#C[C@@H]1CCCN1C(=O)CN1CC[C@H](Oc2ccccc2-c2cc[nH]n2)C1 [Example 72, (S)-1-(2-((S)-3-(2-(1H-pyrazol-3-yl)phenoxy)pyrrolidin-1-yl)acetyl)pyrrolidine-2-carbonitrile] | 101 | 0.8 |  | 
4 | N#C[C@@H]1CCCN1C(=O)CN1CC[C@H](Oc2cccc3c(Cl)ncnc23)C1 [Example 73, (S)-1-(2-((S)-3-((4-chloroquinazolin-8-yl)oxy)pyrrolidin-1-yl)acetyl)pyrrolidine-2-carbonitrile] |  | 1.2 |  | 97.1
5 | N#C[C@@H]1CCCN1C(=O)CN1CC[C@H](Oc2ccc3ncnc(Cl)c3c2)C1 [Example 74, (S)-1-(2-((S)-3-((4-chloroquinazolin-6-yl)oxy)pyrrolidin-1-yl)acetyl)pyrrolidine-2-carbonitrile] |  |  | No inhibition** | 92.3
6 | N#C[C@@H]1CCCN1C(=O)CN1CC[C@H](Oc2cccc3c2CCC(=O)N3)C1 [Example 76, (S)-1-(2-((S)-3-((2-oxo-1,2,3,4-tetrahydroquinolin-5-yl)oxy)pyrrolidin-1-yl)acetyl)pyrrolidine-2-carbonitrile] | 53.6 |  | No inhibition** | 
7 | N#C[C@@H]1CCCN1C(=O)CN1CC[C@H](Oc2ccc3c(c2)CCC(=O)N3)C1 [Example 77, (S)-1-(2-((S)-3-((2-oxo-1,2,3,4-tetrahydroquinolin-6-yl)oxy)pyrrolidin-1-yl)acetyl)pyrrolidine-2-carbonitrile] | 82.3 | 0.4 |  | 
8 | Cc1ccc2cccc(O[C@H]3CCN(CC(=O)N4CCC[C@H]4C#N)C3)c2n1 [Example 78, (S)-1-(2-((S)-3-((2-methylquinolin-8-yl)oxy)pyrrolidin-1-yl)acetyl)pyrrolidine-2-carbonitrile] | 22.5 |  | No inhibition** | 
9 | N#C[C@@H]1CCCN1C(=O)CN1CC[C@H](Oc2ccnc3cc(Cl)ccc23)C1 [Example 79, (S)-1-(2-((S)-3-((7-chloroquinolin-4-yl)oxy)pyrrolidin-1-yl)acetyl)pyrrolidine-2-carbonitrile] | 17.9 | 4.6 |  | 
10 | N#C[C@@H]1CCCN1C(=O)CN1CC[C@H](Oc2ccnc3cc(Br)ccc23)C1 [Example 80, (S)-1-(2-((S)-3-((7-bromoquinolin-4-yl)oxy)pyrrolidin-1-yl)acetyl)pyrrolidine-2-carbonitrile] | 20.5 | 5.1 |  | 
11 | N#C[C@@H]1CCCN1C(=O)CN1CC[C@H](Oc2cccc(-c3ccccc3)c2)C1 [Example 82, (S)-1-(2-((S)-3-([1,1′-biphenyl]-3-yloxy)pyrrolidin-1-yl)acetyl)pyrrolidine-2-carbonitrile] |  | 6.5 |  | 72.6
12 | N#C[C@@H]1CCCN1C(=O)CN1CC[C@H](Oc2ccc(-c3ccccc3)cc2)C1 [Example 83, (S)-1-(2-((S)-3-([1,1′-biphenyl]-4-yloxy)pyrrolidin-1-yl)acetyl)pyrrolidine-2-carbonitrile] |  | 6.3 |  | 68.1

Next, values leading:

Row | IC50 [1] [nM] | inhibition at 1 µM [2] [%] | hDPP4 inhibition % at 1 μM [2] | inhibition at 1 µM [1] [%] | Structure (SMILES)
13 | 19.9 | 5.9 |  |  | N#C[C@@H]1CCCN1C(=O)CN1CC[C@H](Oc2ccnc3c(F)c(F)ccc23)C1 [Example 85, (S)-1-(2-((S)-3-((7,8-difluoroquinolin-4-yl)oxy)pyrrolidin-1-yl)acetyl)pyrrolidine-2-carbonitrile]
14 |  | 6.8 |  | 70.7 | COC(=O)C1Cc2ccc(O[C@H]3CCN(CC(=O)N4CCC[C@H]4C#N)C3)cc2O1 (stereo partly drawn) [Example 86, Methyl 6-(((S)-1-(2-((S)-2-cyanopyrrolidin-1-yl)-2-oxoethyl)pyrrolidin-3-yl)oxy)-2,3-dihydrobenzofuran-2-carboxylate]
15 |  | 6.9 |  | 51.9 | N#C[C@@H]1CCCN1C(=O)CN1CC[C@H](Oc2ccc(Oc3ccccc3)cc2)C1 [Example 87, (S)-1-(2-((S)-3-(4-phenoxyphenoxy)pyrrolidin-1-yl)acetyl)pyrrolidine-2-carbonitrile]
16 |  | 6.1 |  | 57.9 | N#C[C@@H]1CCCN1C(=O)CN1CC[C@H](Oc2cccc(Oc3ccccc3)c2)C1 [Example 88, (S)-1-(2-((S)-3-(3-phenoxyphenoxy)pyrrolidin-1-yl)acetyl)pyrrolidine-2-carbonitrile]
17 |  | 7.9 |  | 56.8 | N#C[C@@H]1CCCN1C(=O)CN1CC[C@H](Oc2ccc(Cc3ccccc3)cc2)C1 [Example 89, (S)-1-(2-((S)-3-(4-benzylphenoxy)pyrrolidin-1-yl)acetyl)pyrrolidine-2-carbonitrile]
18 |  | 7.7 |  | 52.9 | N#C[C@@H]1CCCN1C(=O)CN1CC[C@H](Oc2ccccc2Cc2ccccc2)C1 [Example 90, (S)-1-(2-((S)-3-(2-benzylphenoxy)pyrrolidin-1-yl)acetyl)pyrrolidine-2-carbonitrile]
19 |  | 9.1 |  | 59.2 | N#C[C@@H]1CCCN1C(=O)CN1CC[C@H](Oc2cccc(C(=O)c3ccccc3)c2)C1 [Example 91, (S)-1-(2-((S)-3-(3-benzoylphenoxy)pyrrolidin-1-yl)acetyl)pyrrolidine-2-carbonitrile]
20 |  | 10.2 |  | 56.4 | N#C[C@@H]1CCCN1C(=O)CN1CC[C@H](Oc2ccc(C(=O)c3ccccc3)cc2)C1 [Example 92, (S)-1-(2-((S)-3-(4-benzoylphenoxy)pyrrolidin-1-yl)acetyl)pyrrolidine-2-carbonitrile]
